Here are results for 1 compound from ChEMBL document CHEMBL5331134, “Identification of Brain-Penetrant ATP-Competitive mTOR Inhibitors for CNS Syndromes” (J Med Chem, 2023).

Data set [1] is described as follows: In vivo inhibition of phosphorylation of AKT at serine 473 residues in C57BL/6 mouse brain at 30 mg/kg, po measured after 24 hrs by Western blotting analysis. It is filed as organism-based.
A short description of data set [2]: Drug concentration in C57BL/6 mouse plasma at 1 mg/kg, po measured after 3 hrs. It is filed as ADME, organism-based.

SMILES strings stand for the structures.

Take `C[C@@H]1COCCN1c1cc(N2CCOC[C@@H]2C)nc2[nH]c(-c3cscn3)nc12`: in data set [1], the “inhibition (INH)” value is recorded as “Active”. The compound further yielded a concentration at 3 h in data set [2] of 674 nM.
